According to patent US10836764B2, “5-HT2C receptor agonists and compositions and methods of use” (Arena Pharmaceuticals, Inc., priority 2016, dated 2020):
pEC50, pKi: −log10 of the molar value. Like-named read-outs stand apart in the source and are kept apart here.

Tests used:
[1] = molecular target: T1, 5-HT2A receptor (Homo sapiens (Human), UniProt P28223); test: DOI radioligand binding assay, 5-HT2A
Experimental: (§1) For the compounds of Table A, the following procedure was used. HEK293 cells stably expressing recombinant 5-HT2 receptors were harvested, suspended in ice-cold phosphate buffered saline, pH 7.4 (PBS), and then centrifuged at 48,000 g for 20 min at 4° C. The resulting cell pellet was then re-suspended in wash buffer containing 20 mM HEPES, pH 7.4 and 0.1 mM EDTA, homogenized on ice using a Brinkman Polytron, and centrifuged (48,000 g for 20 min at 4° C.). The pellet was then resuspended in 20 mM HEPES, pH 7.4, homogenized on ice, and centrifuged (48,000 g for 20 min at 4° C.). Crude membrane pellets were stored at −80° C. until used for radioligand binding assays.
(§2) For the compounds of Table A, the following procedure was used. […] Experiments comprised addition of 95 μL of assay buffer (20 mM HEPES, pH 7.4, 10 mM MgCl2), 50 μL of membranes, 50 μL of radioligand stock, and 5 μL of test compound diluted in assay buffer to 96-well microtiter plates, which were then incubated for 1 h at room temperature. Assay incubations were terminated by rapid filtration through PerkinElmer F/C filtration plates under reduced pressure using a 96-well Packard filtration apparatus, followed by washing three times with ice cold assay buffer. Plates were then dried at 45° C. for a minimum of 2 h. Finally, 25 μL of BetaScint™ scintillation cocktail was added to each well and the plates were counted in a Packard TopCount® scintillation counter. In each competition study, test compounds were dosed at ten concentrations with triplicate determinations at each test concentration.

[2] = molecular target: T2, 5-HT2B receptor (Homo sapiens (Human), UniProt P41595); test: DOI radioligand binding assay, 5-HT2B; conditions: [125I]DOI competition, HEK293 cell membranes
Experimental: as §1, §2

[3] = molecular target: T3, 5-HT2C receptor (Homo sapiens (Human), UniProt P28335); test: DOI radioligand binding assay, 5-HT2C
Experimental: as §1, §2

[4] = molecular target: T3, 5-HT2C receptor; test: IP accumulation assay, 5-HT2C; type: cell-based
Experimental: (§3) HEK293 cells expressing recombinant 5-HT2 receptors were added to sterile poly-D-lysine-coated 96-well microtiter plates (35,000 cells/well) and labeled with 0.6 μCi/well of [^3H]inositol in myoinositol-free DMEM for 18 h. Unincorporated [^3H]inositol was removed by aspiration and replaced with fresh myoinositol-free DMEM supplemented with LiCl (10 mM final) and pargyline (10 μM final). Serially diluted test compounds were then added and incubation was conducted for 2 h at 37° C. (5-HT2B, and 5-HT2A) and RT (5-HT2C). Incubations were then terminated by lysing cells with the addition of ice-cold 0.1 M formic acid followed by freezing at −80° C. After thawing, total [^3H]inositol phosphates were resolved from [^3H]inositol using AG1-X8 ion exchange resin (Bio-Rad) and [^3H]inositol phosphates were measured by scintillation counting using a Perkin Elmer TopCount® scintillation counter. All EC50 determinations were performed using 10 different concentrations and triplicate determinations were made at each test concentration.

[5] = molecular target: T1, 5-HT2A receptor; test: IP accumulation assay, 5-HT2A; type: cell-based
Experimental: as §3

[6] = molecular target: T2, 5-HT2B receptor; test: IP accumulation assay, 5-HT2B; type: cell-based; conditions: IP accumulation, HEK293 cells, 2 h at 37° C.; read-out: EC50 5HT2B
Experimental: as §3

[7] = [125I]DOI competition, HEK293 cell membranes, read-out: DOI Binding 5HT2A
[8] = IP accumulation, HEK293 cells, 2 h at RT, read-out: EC50 5HT2C
[9] = IP accumulation, HEK293 cells, 2 h at 37° C., read-out: EC50 5HT2A

T2 sequence (P41595 whole entry): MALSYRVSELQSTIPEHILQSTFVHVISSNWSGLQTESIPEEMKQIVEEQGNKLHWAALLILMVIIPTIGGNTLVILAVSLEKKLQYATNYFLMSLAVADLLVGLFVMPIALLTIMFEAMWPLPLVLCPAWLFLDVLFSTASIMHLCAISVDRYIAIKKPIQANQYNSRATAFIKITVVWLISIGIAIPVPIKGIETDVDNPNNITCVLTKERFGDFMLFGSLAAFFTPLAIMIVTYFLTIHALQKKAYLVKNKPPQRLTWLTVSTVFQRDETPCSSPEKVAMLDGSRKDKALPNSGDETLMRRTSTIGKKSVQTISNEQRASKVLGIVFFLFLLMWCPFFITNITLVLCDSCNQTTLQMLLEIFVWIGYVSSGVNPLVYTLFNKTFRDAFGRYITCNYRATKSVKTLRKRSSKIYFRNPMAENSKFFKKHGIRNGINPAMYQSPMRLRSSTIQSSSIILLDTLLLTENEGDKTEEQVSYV
T1 sequence (P28223 whole entry): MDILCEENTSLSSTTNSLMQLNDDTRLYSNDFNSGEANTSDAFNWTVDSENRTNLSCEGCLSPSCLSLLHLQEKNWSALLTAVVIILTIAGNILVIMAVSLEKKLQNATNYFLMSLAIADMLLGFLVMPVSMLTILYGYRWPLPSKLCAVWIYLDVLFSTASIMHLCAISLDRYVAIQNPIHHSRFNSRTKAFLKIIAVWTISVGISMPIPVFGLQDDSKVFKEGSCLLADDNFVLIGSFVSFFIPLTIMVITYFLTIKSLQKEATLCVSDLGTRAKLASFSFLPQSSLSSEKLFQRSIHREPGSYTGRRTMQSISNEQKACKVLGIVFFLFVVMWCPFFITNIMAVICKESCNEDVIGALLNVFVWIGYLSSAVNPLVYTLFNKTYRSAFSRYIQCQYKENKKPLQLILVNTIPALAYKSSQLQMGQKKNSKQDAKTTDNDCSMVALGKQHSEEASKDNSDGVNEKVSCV
T3 sequence (P28335 33-458): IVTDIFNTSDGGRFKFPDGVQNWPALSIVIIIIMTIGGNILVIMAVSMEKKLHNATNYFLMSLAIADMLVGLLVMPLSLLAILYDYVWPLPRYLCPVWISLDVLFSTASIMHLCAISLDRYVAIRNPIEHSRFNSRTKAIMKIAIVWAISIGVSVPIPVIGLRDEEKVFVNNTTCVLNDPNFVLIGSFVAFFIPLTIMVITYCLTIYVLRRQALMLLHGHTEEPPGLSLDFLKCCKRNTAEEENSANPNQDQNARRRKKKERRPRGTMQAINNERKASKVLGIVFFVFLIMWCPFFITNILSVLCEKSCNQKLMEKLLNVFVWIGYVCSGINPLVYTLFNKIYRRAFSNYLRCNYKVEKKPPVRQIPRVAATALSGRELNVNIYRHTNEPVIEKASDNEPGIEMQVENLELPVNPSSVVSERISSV

## Brc1cncc2c1CC[C@@H]1CNCCN21 [Compound 172, (R)-4-bromo-6,6a,7,8,9,10-hexahydro-5H-pyrazino[1,2-a][1,7]naphthyridine]
[1]; [7]
  pKi: 7.14
[2]
  pKi: 7.89

## c1csc(-c2ccnc3c2CC[C@@H]2CNCCN32)c1 [Compound 126, (R)-4-(thiophen-2-yl)-6,6a,7,8,9,10-hexahydro-5H-pyrazino[1,2-a][1,8]naphthyridine]
[1]; [7]
  pKi: 7.16
[2]
  pKi: 6.91

## CC(C)c1ccnc2c1CC[C@@H]1CNCCN21 [Compound 111, (R)-4-isopropyl-6,6a,7,8,9,10-hexahydro-5H-pyrazino[1,2-a][1,8]naphthyridine]
[3]
  pKi: 9.06

## c1ncc2c(c1CC1CCCCC1)CC[C@@H]1CNCCN21 [Compound 174, (R)-4-(cyclohexylmethyl)-6,6a,7,8,9,10-hexahydro-5H-pyrazino[1,2-a][1,7]naphthyridine]
[1]; [7]
  pKi: 6.97
[2]
  pKi: 6.85

## CCCCc1ccnc2c1CC[C@@H]1CNCCN21 [Compound 112, (R)-4-butyl-6,6a,7,8,9,10-hexahydro-5H-pyrazino[1,2-a][1,8]naphthyridine]
[3]
  pKi: 9.30
[1]; [7]
  pKi: 7.97

## Brc1ccnc2c1CC[C@@H]1CNCCCN21 [Compound 156, (R)-4-bromo-5,6,6a,7,8,9,10,11-octahydro-[1,4]diazepino[1,2-a][1,8]naphthyridine]
[1]; [7]
  pKi: 5.86
[2]
  pKi: 6.90

## CC(C)OCc1ccnc2c1CC[C@@H]1CNCCN21 [Compound 145, (R)-4-(isopropoxymethyl)-6,6a,7,8,9,10-hexahydro-5H-pyrazino[1,2-a][1,8]naphthyridine]
[1]; [7]
  pKi: 6.65
[2]
  pKi: 6.68

## c1cc(CC2CCCCO2)c2c(n1)N1CCNC[C@H]1CC2 (stereo partly drawn) [Compound 132, (6aR)-4-((tetrahydro-2H-pyran-2-yl)methyl)-6,6a,7,8,9,10-hexahydro-5H-pyrazino[1,2-a][1,8]naphthyridine]
[1]; [7]
  pKi: 6.67
[2]
  pKi: 5.96

## FC(F)(F)CCc1ccnc2c1CC[C@@H]1CNCCCN21 [Compound 157, (R)-4-(3,3,3-trifluoropropyl)-5,6,6a,7,8,9,10,11-octahydro-[1,4]diazepino[1,2-a][1,8]naphthyridine]
[1]; [7]
  pKi: 5.94
[2]
  pKi: 6.14

## COCCc1ccnc2c1CC[C@@H]1CNCCN21 [Compound 107, (R)-4-(2-methoxyethyl)-6,6a,7,8,9,10-hexahydro-5H-pyrazino[1,2-a][1,8]naphthyridine]
[1]; [7]
  pKi: 7.00
[2]
  pKi: 6.75

## c1cc(CC2CCCC2)c2c(n1)N1CCNC[C@H]1CC2 [Compound 170, (R)-4-(cyclopentylmethyl)-6,6a,7,8,9,10-hexahydro-5H-pyrazino[1,2-a][1,8]naphthyridine]
[3]
  pKi: 9.10

## CCc1c(CC2CCCCC2)cnc2c1CC[C@@H]1CNCCN21 [Compound 164, (R)-3-(cyclohexylmethyl)-4-ethyl-6,6a,7,8,9,10-hexahydro-5H-pyrazino[1,2-a][1,8]naphthyridine]
[3]; read-out: DOI Binding 5HT2C
  pKi: 6.63
[1]; [7]
  pKi: 6.15

## c1cc(COCC2CCOCC2)c2c(n1)N1CCNC[C@H]1CC2 [Compound 133, (R)-4-(((tetrahydro-2H-pyran-4-yl)methoxy)methyl)-6,6a,7,8,9,10-hexahydro-5H-pyrazino[1,2-a][1,8]naphthyridine]
[3]; read-out: DOI Binding 5HT2C
  pKi: 5.90
[1]; [7]
  pKi: 5.78
[2]
  pKi: 6.07

## CN1CCN2c3nccc(CCC(F)(F)F)c3CC[C@@H]2C1 [Compound 168, (R)-8-methyl-4-(3,3,3-trifluoropropyl)-6,6a,7,8,9,10-hexahydro-5H-pyrazino[1,2-a][1,8]naphthyridine]
[1]; [7]
  pKi: 7.24
[2]
  pKi: 6.48

## c1ccc(Cc2ccnc3c2CC[C@@H]2CNCCN32)cc1 [Compound 106, (R)-4-benzyl-6,6a,7,8,9,10-hexahydro-5H-pyrazino[1,2-a][1,8]naphthyridine]
[3]
  pKi: 9.56
[1]; [7]
  pKi: 8.92
[4]; [8]
  pEC50: 9.94
[5]; [9]
  pEC50: 7.27

## CSc1nc(Cl)c2c(n1)N1CCCNC[C@H]1CC2 [Compound 159, (R)-4-chloro-2-(methylthio)-5,6,6a,7,8,9,10,11-octahydropyrimido[5′,4′:5,6]pyrido[1,2-a][1,4]diazepine]
[3]; read-out: DOI Binding 5HT2C
  pKi: 5.80
[1]; [7]
  pKi: 4.91
[2]
  pKi: 6.57

## Clc1ncnc2c1CC[C@@H]1CNCCCN21 [Compound 160, (R)-4-chloro-5,6,6a,7,8,9,10,11-octahydropyrimido[5′,4′:5,6]pyrido[1,2-a][1,4]diazepine]
[3]; read-out: DOI Binding 5HT2C
  pKi: 5.25
[1]; [7]
  pKi: 4.00
[2]
  pKi: 5.74

## N#CCCc1ccnc2c1CC[C@@H]1CNCCN21 [Compound 142, (R)-3-(6,6a,7,8,9,10-hexahydro-5H-pyrazino[1,2-a][1,8]naphthyridin-4-yl)propanenitrile]
[1]; [7]
  pKi: 6.08
[2]
  pKi: 6.18

## CCCCCc1ccnc2c1CC[C@@H]1CNCCN21 [Compound 108, (R)-4-pentyl-6,6a,7,8,9,10-hexahydro-5H-pyrazino[1,2-a][1,8]naphthyridine]
[3]
  pKi: 9.40
[1]; [7]
  pKi: 8.64

## Fc1cccc(Cc2ccnc3c2CC[C@@H]2CNCCN32)c1 [Compound 115, (R)-4-(3-fluorobenzyl)-6,6a,7,8,9,10-hexahydro-5H-pyrazino[1,2-a][1,8]naphthyridine]
[3]
  pKi: 9.71
[1]
  pKi: 9.30
[4]; [8]
  pEC50: 9.72
[5]; [9]
  pEC50: 7.43

## Clc1ccc(-c2ccnc3c2CC[C@@H]2CNCCN32)nc1 [Compound 146, (R)-4-(5-chloropyridin-2-yl)-6,6a,7,8,9,10-hexahydro-5H-pyrazino[1,2-a][1,8]naphthyridine]
[3]; read-out: DOI Binding 5HT2C
  pKi: 5.51
[1]; [7]
  pKi: 5.27
[2]
  pKi: 5.99

## CCc1c(CC2CCCCO2)cnc2c1CC[C@@H]1CNCCN21 (stereo partly drawn) [Compound 165, (6aR)-4-ethyl-3-((tetrahydro-2H-pyran-2-yl)methyl)-6,6a,7,8,9,10-hexahydro-5H-pyrazino[1,2-a][1,8]naphthyridine]
[3]; read-out: DOI Binding 5HT2C
  pKi: 6.24
[1]; [7]
  pKi: 6.05

## Fc1ccccc1Cc1ccnc2c1CC[C@@H]1CNCCN21 [Compound 116, (R)-4-(2-fluorobenzyl)-6,6a,7,8,9,10-hexahydro-5H-pyrazino[1,2-a][1,8]naphthyridine]
[3]
  pKi: 9.52
[1]; [7]
  pKi: 8.58
[4]
  pEC50: 9.50
[5]
  pEC50: 6.82

## CCCc1ccnc2c1CC[C@@H]1CNCCN21 [Compound 113, (R)-4-propyl-6,6a,7,8,9,10-hexahydro-5H-pyrazino[1,2-a][1,8]naphthyridine]
[3]
  pKi: 9.79
[1]; [7]
  pKi: 8.16
[4]
  pEC50: 10.18

## C/C=C/Cc1ccnc2c1CC[C@@H]1CNCCN21 [Compound 144, (R,E)-4-(but-2-en-1-yl)-6,6a,7,8,9,10-hexahydro-5H-pyrazino[1,2-a][1,8]naphthyridine]
[3]
  pKi: 9.26
[1]; [7]
  pKi: 8.30

## CCc1c(CCC#N)cnc2c1CC[C@@H]1CNCCN21 [Compound 162, (R)-3-(4-ethyl-6,6a,7,8,9,10-hexahydro-5H-pyrazino[1,2-a][1,8]naphthyridin-3-yl)propanenitrile]
[1]; [7]
  pKi: 5.90
[2]
  pKi: 6.60

## O=C(Nc1ccnc2c1CC[C@@H]1CNCCN21)c1ccccc1Cl [Compound 104, (R)-2-chloro-N-(6,6a,7,8,9,10-hexahydro-5H-pyrazino[1,2-a][1,8]naphthyridin-4-yl)benzamide]
[6]
  pEC50: ≤ 4.00
[4]; [8]
  pEC50: 4.00
[5]
  pEC50: ≤ 4.00

## CCc1ccnc2c1CC[C@@H]1CNCCN21 [Compound 110, (R)-4-ethyl-6,6a,7,8,9,10-hexahydro-5H-pyrazino[1,2-a][1,8]naphthyridine]
[3]
  pKi: 9.25
[1]; [7]
  pKi: 7.79

## c1cc(C2CCCCC2)c2c(n1)N1CCNC[C@H]1CC2 [Compound 127, (R)-4-cyclohexyl-6,6a,7,8,9,10-hexahydro-5H-pyrazino[1,2-a][1,8]naphthyridine]
[6]
  pEC50: 6.04
[4]; [8]
  pEC50: 5.82
[5]
  pEC50: 5.04
